Assay results taken from patent US8841460B2, “Tunable phenylacetylene hosts” (State of Oregon, acting by and through the State Board of …, priority 2011, dated 2014).

Key:
[1] = Photoluminescence quantum yield and Stokes shift in MeCN; format: physicochemical
Protocol: This example describes general materials and methods used in the synthesis and characterization of exemplary host compounds. All solvents were dried over 3 Å molecular sieves unless otherwise stated. THF, Et3N, and CH2Cl2 were respectively distilled from potassium metal and CaH2 prior to use. All other materials were obtained from TCI-America, Sigma-Aldrich, Acros and Strem and used as received. ^1H and ^13C NMR spectra were recorded using a Varian Inova 300 (^1H 299.95 MHz, ^13C 75.43 MHz) or Inova 500 (^1H 500.10 MHz, ^13C 125.75 MHz) spectrometer. Chemical shifts (δ) expressed as ppm downfield from tetramethylsilane using either the residual solvent peak as an internal standard (CDCl3 ^1H, 7.27 ppm) or using CDCl3 spiked with 1% […] for the ^1H NMR spectra. For the ^13C NMR spectra the middle CDCl3 peak (δ 77.00 ppm) was used as the internal standard. Signal patterns are indicated as b, broad; s, singlet; d, doublet; t, triplet; m, multiplet. Coupling constants (J) are given in hertz. UV-Vis spectra were recorded using a Hewlett-Packard 8453 spectrophotometer and extinction coefficients are expressed in M^−1 cm^−1. Mass spectra were recorded using an Agilent 1100 Series LC/MSD. Emission spectra were recorded on a Hitachi F-4500 fluorescence spectrophotometer. Melting points were determined with a Meltemp II apparatus or a TA Instruments DSC 2920 Modulated DSC. […]

[2] = Absorption/fluorescence response upon addition of TFA; conditions: reversed by aqueous base
Text: The absorption spectra of compounds 6-8 and 10 are dominated by a characteristic pattern consisting of three peaks. There is a lack of significant spectral changes associated with conversion of diamide 8 to disulfide 10, which is not unexpected, as overall conjugation remains limited by the methylene spacer.

| Structure (SMILES) | Quantum Yield (PLQY) [1] [%] | Stokes Shift [1] [cm⁻¹] | spectral change upon addition of TFA [2] |
| --- | --- | --- | --- |
| CC(C)(C)c1ccc(N)c(C#Cc2cccc(C#Cc3cc(C(C)(C)C)ccc3N)n2)c1 [Dianiline 6, 2,2′-(pyridine-2,6-diylbis(ethyne-2,1-diyl))bis(4-tert-butylaniline)] | 0.6 | 5270 | – |
| CC(C)(C)c1ccc2c(c1)C#Cc1cccc(n1)C#Cc1cc(C(C)(C)C)ccc1NC(=O)CSSCC(=O)N2 [disulfide 10] | – | – | conversion from a colorless solution with purple fluorescence to a deep yellow solution with yellow fluorescence |
